The subject of data set [1] is blast cells, LSCs and HSPCs of leukemic Pten:β-cat^Act mice. It counts as in vivo. Here is the method:
Leukemic mice were treated with vehicle, chemotherapy, [Low]DXR (5×0.5 mg/kg), clinical DXR (1×20 mg/kg), or chemotherapy+[Low]DXR as described in FIG. S2.
Average frequency of each population (n≥6 per group) is shown.
Absolute number/femur±SD of each population (n≥6 per group) is shown.
At 10 days post-treatment, BM was analyzed by flow cytometry to determine frequency of blast cells. Average frequency±SD (n 6 per group). Note that this experiment used clinical dose (normal) or [Low]
Alternatively, a single injection on day 1 of 0.8 or 2.5 μg/g of DXR-loaded nanoparticles (NanoDXR) was given with and without chemotherapy. At 10 days post-treatment, BM was analyzed by flow cytometry to determine frequency of LSCs. Shown is average frequency±SD (n 6 per group).
Alternatively, a single injection on day 1 of 0.8 or 2.5 μg/g of DXR-loaded nanoparticles (NanoDXR) was given with and without chemotherapy. At 10 days post-treatment, BM was analyzed by flow cytometry to determine frequency of HSPCs. Shown is average frequency±SD (n 6 per group).
Whole bone marrow was isolated from uninduced HSC-SCL-Cre^+ Pten^fx/fx βcat^fx(Exon3)/+ (Pn:β-cat^Act) mice and combined with an equal portion of Cre negative bone marrow from a littermate and transplanted into irradiated (10 Grays) B6.SJL-Ptprc^a Pepc^b/BoyJ (Ptprc) recipients.
Chemotherapy for the animal model consisted of Nelarabine (Selleck) and Dexamethasone (BioVision) administered daily for 5 days consecutively. 43.4 mg/ml Nelarabine was administered intravenously via the tail vain according to the formula: Body Weight (g)×5=volume to inject (μl), which yielded 217 mg/kg. 2.5 mg/ml Dexamethasone was injected intraperitoneally according to the formula: Body Weight (g)×4=volume to inject (μl), yielding 10 mg/kg. […] [Low] NanoDXR treatment used doxorubicin nanoparticles (Tran et al. 2014) administered as a single IV injection once per week on day 1 relative to above treatments using 0.8 mg/kg. Maintenance [Low] NanoDXR consisted of once per week injections of 0.4 mg/kg. Groups combining Nelarabine with Doxorubicin used a single injection containing both drugs. All drugs were solubilized in 45% (2-Hydroxypropyl)-p-cyclodextrin (HBC) or 0.9% NaCl.
Cells were collected from bone marrow (femur and tibia), spleen, peripheral blood, and thymus. For cell surface phenotyping, a lineage cocktail (Lin) was used including CD3 (for HSPC but not LSC analysis), CD4, CD8, Mac-1, Gr, B220, IgM, and Ter119 (eBioscience, San Diego, CA). Monoclonal antibodies against CD3 (separate fluorophore for LSC analysis), Sca-1, c-Kit, CD45.1, and CD45.2 were also used where indicated. Cell sorting and analysis were performed using an inFlux (BD), MoFlo (Dako, Ft. Collins, CO) and/or CyAn ADP (Dako, Ft. Collins, CO). Data analysis was performed using FlowJo software (Ashland, OR).

The test system of data set [2] is human T-ALL blasts and pS^552-β-cat^+ LSCs. In words: Patient-derived xenografts of MRD+ pediatric T-ALL treated with [Low]DXR. The settings on record: [Low]DXR 5 days, two weeks after transplantation; Pt 057, Pt 062. Format: in vivo. An excerpt:
Shown is T-ALL blasts (CD45^+ c-Kit^−ve CD3^+) in Pt 057. Graphs indicate frequency of human CD45^+ cells (%)+SD.
Graphs indicate frequency of human CD45^+ cells (%)±SD.

Data set [3] has as its system LSCs and blast cells of leukemia mice. In words: Immune-checkpoint blocker treatment / CD8+ T cell depletion in leukemia mice. Format: in vivo, mouse. The settings on record: [Low]DXR after anti-CD8 depletion. The method, then: For immune-checkpoint blocker treatment, 250 μg anti-PD-1 or isotype control (BioXcell) was injected intravenously every other day for a total of 3 injections. For CD8^+ T cell depletion, 2×100 μg and 1×250 μg of anti-CD8a or isotype control (BioXcell) was injected intravenously every other day.

The subject of data set [4] is pS^552-β-catenin. The data set can be described thus: Western analysis of compound-treated TOP and FOP cells. Format: cell-based. Here is the method: TOP and FOP cells were treated with thioguanosine at EC90, EC50 and EC25 derived from FIG. 2A for 48 hours, washed and flash frozen for Western analysis. EC50 data is shown.
TOP and FOP cells were treated with compound 0105375 at EC90, EC50 and EC25 derived from FIG. 2B for 48 hours, washed and flash frozen for Western analysis. EC50 data is shown.
TOP and FOP cells were treated with doxorubicin at EC90, EC50 and EC25 derived from FIG. 2C for 48 hours, washed and flash frozen for Western analysis. EC50 data is shown.

The test system of data set [5] is pS^552-β-catenin. In words: FACS for pS552-β-catenin in populations from treated leukemic mice. It counts as in vivo, mouse. Particulars: [Low]DXR; 4 days post-treatment; LSCs. Here is the method: Percent of LSC, HSPC or blast cell population expressing pS^552-β-catenin is indicated for each treatment. Numbers indicate mean±SD; n=3-5 per group.
For FACS analysis using PE-conjugated monoclonal anti-pS552-β-catenin antibody, cells were washed twice after cell surface staining, resuspended in 250ul of BD Fixation/Permeabilization® solution, incubated for 20 minutes at 4°, washed 2× with 1 ml of 1×BD Perm/Wash Buffer®, resuspended with 100 ul 1×BD Perm/Wash Buffer®, added […] anti-pS552-β-catenin antibody per 100 ul solution containing up to 3 million cells, incubated 2 hours on ice with rocking (resuspended every 15 minutes), washed 2 times and resuspended in PBS+2% FBS for analysis. BM from β-cat knockout mouse was harvested at 2-3 weeks post-knockout induction and stained alongside other test samples.

Where [6] appears, read: BM FACS 5 days post-treatment, DXR as [Low]DXR 5×0.5 mg/kg, chemotherapy = Nelarabine+Dexamethasone 5 days.
Setting [7] is: clinical dose DXR 20 mg/kg alone.
Setting [8] is: particularly low concentrations, 48 hours.

Like-named read-outs stand apart in the source and are kept apart here.

For `COc1cccc2c1C(=O)c1c(O)c3c(c(O)c1C2=O)C[C@@](O)(C(=O)CO)C[C@@H]3O[C@H]1C[C@H](N)[C@H](O)[C@H](C)O1` [DXR, doxorubicin], in data set [1] (setting [6]), the “effect on LSCs” value is “significantly reduced” and the “effect on blast cells” value is “no significant effect”. In addition, in data set [1] ([Low]DXR with Dexamethasone, 10 days post-treatment), the “blast cell reduction when DXR substitutes for Nelarabine” value is “did not significantly reduce blast cells”. In data set [1] (setting [7]), the “HSPC frequency versus vehicle alone” value was “not significantly different”, the “increase of LSC frequency among surviving cells” value is listed as 5 fold, the “increase of blast cell frequency among surviving cells” value was under 2 fold and the “toxicity in terms of absolute cell number” value was “broadly toxic to all cells”. Further, the “blast cell reduction when DXR substitutes for Nelarabine” value in data set [1] (clinical equivalent dose DXR (5×4 mg/kg daily) with Dexamethasone, 10 days post-treatment) was “could substitute for a DNA-damaging agent in their reduction”. Further, the “reduction of LSCs” value in data set [1] (free DXR, 5 doses of 0.15 μg/g, 10 days post-treatment) is reported as “ineffective”. Moreover, in data set [2], the “engraftment of bulk blast cells” value is given as “not significantly changed” and the “pS552-β-cat+ LSCs” value was “significantly reduced”. The “effect on LSCs after CD8+ T cell depletion” value in data set [3] was “no longer significantly reduced LSCs”. Also, the “inhibition of pS552-β-catenin relative to pan β-catenin (HTS candidates)” value in the data set on pS^552-β-catenin [4] is given as “could inhibit pS^552-β-catenin with less effect on pan β-catenin”. Moreover, in the data set with pS^552-β-catenin [4] (setting [8]), the “effect on β-catenin generally” value is given as “only minimal effect” and the pS552-β-catenin level entry is reported as “inhibited”. Moreover, the pS552-β-catenin expression result with pS^552-β-catenin [5] is reported as “substantially reduced”.

These data come from patent publication US12186332B2, “Methods for overcoming WNT/beta-catenin anti-cancer resistance in leukemia stem cells” (STOWERS INSTITUTE FOR MEDICAL RESEARCH, priority 2019, dated 2025).
